The results in this text go back to ChEMBL document CHEMBL1201862, “PubChem BioAssay data set” (2004).

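Briefly, cells in 96-well plates were exposed to five compound concentrations for 48 h, and endpoints were estimated by linear interpolation. At the GI50, growth is halved.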 The source made the active and inactive calls. No stated cut-off is given here; in the data, active = GI50 up to about 1.1 µM and inactive = higher.

What all share (assay): inhibition of tumour cell growth, NCI panel, 48 h
The subject of experiment [1] is Malme-3M.
Experiment [2] concerns SF-268.
In experiment [3] the test system is 786-0.
Experiment [4] relates to IGROV-1.
The subject of experiment [5] is SF-295.
The test system of experiment [6] is KM12.
Experiment [7] deals with SF-539.
The test system of experiment [8] is OVCAR-5.
Experiment [9] deals with COLO 205.
In experiment [10] the test system is EKVX.
Experiment [11] relates to A498.
In experiment [12] the test system is HCT-15.
In experiment [13] the test system is SW-620.
For experiment [14], the system named is RPMI-8226.
The subject of experiment [15] is SK-OV-3.
The test system of experiment [16] is SNB-19.
Experiment [17] has as its system MOLT-4.
Experiment [18] deals with UACC-257.
In experiment [19] the test system is K562.
The test system of experiment [20] is MDA-MB-435.

On to `C=CCCCCCCC#CCCCCCCCCCC[C@@H]1C(=O)O[C@H](C)[C@@H]1O.CCCCCCCCC#CCCCCCCCCCC[C@@H]1C(=O)O[C@H](C)[C@@H]1O`, for which the GI50 in experiment [1] is 17.5 µM (inactive); in experiment [2], 13.9 µM (inactive); in [3], 15.8 µM (inactive); in experiment [4], 15.7 µM (inactive); in experiment [5] it was 18.8 µM (inactive); in experiment [6], 10.1 µM (inactive). For the same molecule, the GI50 is 20.8 µM (inactive) in [7]; 59.2 µM (inactive) in [8]; 24.8 µM (inactive) in [9]; 16.8 µM (inactive) in experiment [10]; 55.3 µM (inactive) in experiment [11]; 20.2 µM in experiment [12]. The GI50 is 15.2 µM (inactive) in experiment [13]; 16.5 µM (inactive) in experiment [14]; 36.6 µM (inactive) in experiment [15]; 15.9 µM (inactive) in experiment [16]; 12.6 µM (inactive) in [17]; 8.45 µM (inactive) in experiment [18]. The GI50 in [19] is 6.19 µM (inactive).

For `C/C(=N\NC(N)=S)c1ccc2c(c1)OCO2`, the GI50 in experiment [1], in experiment [2], in [3], in experiment [4], in [5] and in experiment [6] was > 100 µM (inactive) in each case. The GI50 in experiment [7] is > 100 µM (inactive); in experiment [8], > 100 µM (inactive); in experiment [9], > 100 µM (inactive); in experiment [10], 13.9 µM (inactive); in experiment [11] it was > 100 µM (inactive); in [12], > 100 µM. The GI50 is > 100 µM (inactive) in experiment [13]; > 100 µM (inactive) in [14]; > 100 µM (inactive) in experiment [15]; > 100 µM (inactive) in experiment [16]; > 100 µM (inactive) in experiment [17]; 99.1 µM (inactive) in [18]. Further, the GI50 in [19] was > 100 µM (inactive).

With `CC1=CC=NN2C(=O)[C@H](C)C2C1` (stereo not given in full), the GI50 in experiment [1], in experiment [2], in experiment [3], in experiment [4], in [5] and in experiment [6] was > 100 µM (inactive) each time. For the same molecule, the GI50 in experiment [7] was > 100 µM (inactive); in [8], > 100 µM (inactive); in experiment [9], > 100 µM (inactive); in experiment [10], > 100 µM (inactive); in [11], > 100 µM (inactive); in experiment [12], > 100 µM. Besides, the GI50 in [13], in experiment [14], in [15], in experiment [16], in experiment [17] and in [18] was > 100 µM (inactive) in each case. In addition, in experiment [19], the GI50 was > 100 µM (inactive).

As to `Oc1c(Cl)c(Cl)c(O)c(CCNc2ccc3ncccc3c2)c1Cl`, the GI50 in experiment [20] is 5.2 µM (inactive); in experiment [1], 18.6 µM (inactive); in [2] it was 5.13 µM (inactive); in experiment [3] it was 16.5 µM (inactive); in experiment [4], 5 µM (inactive); in experiment [5], 11.4 µM (inactive). In addition, the GI50 in experiment [6] is 3.91 µM (inactive); in [7], 12.5 µM (inactive); in experiment [8] it was 20.9 µM (inactive); in [9], 6.55 µM (inactive); in experiment [10], 16.7 µM (inactive); in [12] it was 14.9 µM. Besides, the GI50 in experiment [13] is 4.63 µM (inactive); in experiment [15], 11.8 µM (inactive); in [16], 13.3 µM (inactive); in [17], 1.15 µM (inactive); in experiment [18], 17.9 µM (inactive); in experiment [19] it was 3.47 µM (inactive).

For `Cc1nc(Cc2n[nH]c(C)n2)n[nH]1`, the GI50 in experiment [20], in [2], in [3], in [4], in experiment [5] and in experiment [6] was > 100 µM (inactive) each time. Besides, the GI50 in experiment [7] is > 100 µM (inactive); in experiment [8], > 100 µM (inactive); in [9], > 100 µM (inactive); in experiment [10] it was > 100 µM (inactive); in experiment [12], > 100 µM; in experiment [13] it was > 100 µM (inactive). In addition, the GI50 in experiment [14], in experiment [15], in [16], in [17], in [18] and in experiment [19] was > 100 µM (inactive) throughout.

On to `CN1C(=O)C(c2c[nH]c3ccccc23)N(C)C(=O)C1c1c[nH]c2ccccc12` (stereo not given), for which the GI50 in experiment [20] is > 100 µM (inactive); in experiment [1] it was > 100 µM (inactive); in experiment [2], 86.3 µM (inactive); in experiment [3] it was 53.2 µM (inactive); in experiment [4] it was > 100 µM (inactive); in [5], > 100 µM (inactive). For the same molecule, the GI50 in experiment [6] is > 100 µM (inactive); in experiment [7] it was 86.5 µM (inactive); in experiment [8], > 100 µM (inactive); in experiment [9], > 100 µM (inactive); in experiment [10], > 100 µM (inactive); in experiment [12], > 100 µM. Besides, the GI50 is > 100 µM (inactive) in experiment [13]; > 100 µM (inactive) in experiment [15]; > 10 µM (inactive) in experiment [16]; > 100 µM (inactive) in experiment [17]; > 100 µM (inactive) in [18]; > 100 µM (inactive) in experiment [19].

In the case of `C/N=C(\N)N/N=C(\C)c1ccc2oc3ccc(/C(C)=N/N/C(N)=N/C)cc3c2c1`, the GI50 was 2.92 µM (inactive) in experiment [20]; 2.09 µM (inactive) in experiment [2]; 2.86 µM (inactive) in experiment [3]; 2.24 µM (inactive) in experiment [4]; 3.85 µM (inactive) in experiment [5]; 3.16 µM (inactive) in [6]. The GI50 was 1.62 µM (inactive) in experiment [7]; 9.35 µM (inactive) in [8]; 3.27 µM (inactive) in experiment [9]; 4.24 µM (inactive) in [10]; > 23 µM in experiment [12]; 2.22 µM (inactive) in experiment [13]. For the same molecule, the GI50 is 2.38 µM (inactive) in experiment [14]; 3.16 µM (inactive) in [15]; 2.11 µM (inactive) in experiment [16]; 0.805 µM (active) in experiment [17]; 25.6 µM (inactive) in experiment [18]; 2.15 µM (inactive) in experiment [19].

`CNC(=O)OCc1nc(SSc2nc(COC(=O)NC)c(COC(=O)NC)n2C)n(C)c1COC(=O)NC`: the GI50 in [1], in experiment [2], in [3], in experiment [4], in [5] and in experiment [6] was > 100 µM (inactive) in each case. In addition, the GI50 in [7] was > 100 µM (inactive); in experiment [8] it was > 100 µM (inactive); in experiment [9] it was > 100 µM (inactive); in [10], > 100 µM (inactive); in [11] it was > 100 µM (inactive); in experiment [12] it was > 100 µM. The GI50 in [13], in experiment [14], in experiment [15], in [16], in experiment [17] and in experiment [18] was > 100 µM (inactive) each time. Moreover, the GI50 in [19] is > 100 µM (inactive).

Take `CCN(CC)C(=C(C(Cl)=C(Cl)Cl)[N+](=O)[O-])N(CC)CC`: the GI50 is 19.6 µM (inactive) in experiment [1]; 41 µM (inactive) in [2]; > 100 µM (inactive) in experiment [3]; 47.1 µM (inactive) in experiment [4]; > 100 µM (inactive) in experiment [5]; > 100 µM (inactive) in [6]. Also, the GI50 in experiment [7] is > 100 µM (inactive); in experiment [8] it was > 100 µM (inactive); in experiment [9] it was > 100 µM (inactive); in experiment [10] it was > 100 µM (inactive); in [11], > 100 µM (inactive); in experiment [12] it was 62.2 µM. Also, the GI50 in experiment [13] is 85.9 µM (inactive); in [14], 42.3 µM (inactive); in experiment [15] it was > 100 µM (inactive); in [16], 29.6 µM (inactive); in experiment [17] it was 27.2 µM (inactive); in [18], 54.6 µM (inactive). Besides, the GI50 in experiment [19] was 46.5 µM (inactive).

With `N#CC1CC2(CCN1C(=O)c1ccccc1)OCCO2` (stereo not given), the GI50 in [1], in [2], in [3], in experiment [4], in experiment [5] and in experiment [6] was > 100 µM (inactive) in each case. The GI50 in experiment [7] is > 100 µM (inactive); in [8], > 100 µM (inactive); in experiment [9], > 100 µM (inactive); in experiment [10], > 100 µM (inactive); in experiment [11], > 100 µM (inactive); in experiment [12], > 100 µM. Moreover, the GI50 in experiment [13], in experiment [14], in experiment [15], in experiment [16], in experiment [17] and in experiment [18] was > 100 µM (inactive) each time. Besides, the GI50 in experiment [19] was > 100 µM (inactive).

`CSc1c(C)c(C)nn1-c1ccccc1`: the GI50 in experiment [1], in experiment [2], in experiment [3], in experiment [4], in experiment [5] and in experiment [6] was > 100 µM (inactive) in each case. The GI50 was > 100 µM (inactive) in [7]; > 100 µM (inactive) in [8]; > 100 µM (inactive) in experiment [9]; > 100 µM (inactive) in [10]; > 100 µM (inactive) in [11]; > 100 µM in [12]. Also, the GI50 in experiment [13], in experiment [14], in experiment [15], in experiment [16], in experiment [17] and in experiment [18] was > 100 µM (inactive) in each case. For the same molecule, the GI50 in [19] was > 100 µM (inactive).
